Data published in patent publication US7485416B2, “Screening methods for the identification of agents that inhibit SIRT1 Tat deacetylase activity” (The Regents of the University of California, priority 2003, dated 2009).

How the values were obtained:
HIV LTR luciferase = assay: Nuclear microinjection of synthetic Tat or AcTat with HIV LTR luciferase reporter into HeLa cells; format: cell-based; conditions: for basal HIV promoter activity / transcriptional activity of AcTat (transactivation of the HIV promoter): TSA 400 nM or nicotinamide 5 mM, four hours (FIG. 6C)
Procedure: Subconfluent MEFs (70%) were grown on Cellocate coverslips (Eppendorf, Westbury, N.Y.), and nuclear microinjections were performed at room temperature with an automated injection system (Eppendorf Micromanipulator 5171 together with Eppendorf Transjector 5246). Samples were prepared as a 20 μl injection mix containing the HIV LTR luciferase reporter or 5×UAS luciferase (each 100 ng/μl), RSV-Tat (10 ng/μl) or Gal4-VP16 (50 ng/μl), CMV-CyclinT1 (100 ng/μl), CMV-SIRT1 (100 or 300 ng/μl) together with CMV-GFP (50 ng/μl) in sterile water. Six hours after microinjection, cells were examined under a Nikon Eclipse TE300 inverted fluorescent microscope to determine the number of GFP-positive cells, washed in cold phosphate buffer, and stored at −70° C. for luciferase assays (Promega). In HeLa cells, synthetic Tat or AcTat proteins (each 30 or 100 ng/μl) were co-injected with the wildtype or mutant HIV LTR luciferase reporters (each 100 ng/μl) together with CMV-GFP (50 ng/μl) and harvested four hours after injection. Cells were treated immediately after injection with 5,6-dichlorobenzimidazole riboside (DRB; 10 or 50 μM; Sigma), TSA (400 nM), or nicotinamide (5 mM). Microinjections in siRNA-treated cells were performed 48 hours after siRNA transfection.

SIRT1 = target: T1, SIRT1 (Homo sapiens, UniProt Q96EB6); assay: In vitro Tat deacetylation assay with immunoprecipitated SIRT1; format: biochemical; conditions: AcTat, NAD+ 1 mM; nicotinamide 5 mM, TSA 400 nM; western blot (FIG. 2B)
T1 construct: made in house; host or cells: HEK 293 cells (transient transfection, anti-FLAG M2 agarose immunoprecipitation)
T1 sequence (Q96EB6 1-747): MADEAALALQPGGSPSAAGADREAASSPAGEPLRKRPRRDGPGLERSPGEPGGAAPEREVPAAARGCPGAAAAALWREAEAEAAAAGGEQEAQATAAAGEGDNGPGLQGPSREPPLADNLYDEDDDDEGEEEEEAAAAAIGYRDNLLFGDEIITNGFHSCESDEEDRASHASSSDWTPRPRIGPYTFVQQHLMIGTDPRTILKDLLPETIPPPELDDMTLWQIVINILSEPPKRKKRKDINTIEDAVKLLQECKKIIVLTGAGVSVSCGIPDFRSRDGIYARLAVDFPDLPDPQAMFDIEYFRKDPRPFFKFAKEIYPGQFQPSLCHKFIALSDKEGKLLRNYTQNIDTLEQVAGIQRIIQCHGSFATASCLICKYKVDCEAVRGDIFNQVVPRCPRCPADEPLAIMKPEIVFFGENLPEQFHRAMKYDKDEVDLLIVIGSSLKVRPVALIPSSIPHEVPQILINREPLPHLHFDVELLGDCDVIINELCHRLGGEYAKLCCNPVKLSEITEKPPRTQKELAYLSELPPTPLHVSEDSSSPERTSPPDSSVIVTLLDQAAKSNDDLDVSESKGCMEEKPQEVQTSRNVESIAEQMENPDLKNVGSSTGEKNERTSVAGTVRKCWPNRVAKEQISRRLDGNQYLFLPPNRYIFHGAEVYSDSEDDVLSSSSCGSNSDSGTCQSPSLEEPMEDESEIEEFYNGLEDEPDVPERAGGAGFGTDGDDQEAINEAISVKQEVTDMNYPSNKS
Procedure: Human SIRT1-7 FLAG-tagged plasmids were transfected in 293 cells with lipofectamine reagent (Invitrogen). Cells were lysed 24 hours after transfection with lysis buffer (50 mM Tris-Hcl, pH 7.5, 0.5 mM EDTA, 0.5% NP40, 150 mM NaCl) in the presence of protease inhibitors (Roche Molecular Biochemicals, Indianapolis, Ind.). Equal amounts of total proteins were immunoprecipitated with α-FLAG (anti-FLAG antibody) coupled to M2 agarose beads (Sigma, St Louis, Mo.), for 2 hours at 4° C. Immunoprecipitated material was washed twice with immunoprecipitation (IP) buffer and one time with SIRT deacetylation buffer (50 mM Tris-HCl pH 9, 4 mM MgCl2, 0.2 mM DTT). The beads were resuspended in 100 μl SIRT deacetylation buffer containing 1 μg synthetic Tat (72 amino acids) carrying an N-terminal biotin label and an acetyl group at position 50. Kaehlcke et al. (2003), supra. Reactions containing TSA (400 nM, WACO Bioproducts, Richmond, Va.) or nicotinamide (5 mM, Sigma) were preincubated for 10 min at room temperature. […] Reactions were stopped by the addition of SDS loading buffer, boiled, and after brief centrifugation, analyzed by western blotting with rabbit α-AcTat antibodies (Kaehlcke et al. (2003), supra) or horseradish peroxidase-conjugated streptavidin (Jackson Immunoresearch Laboratories, West Grove, Pa.). SIRT1-7 proteins were detected with polyclonal α-FLAG antibodies (Sigma).

pHR'-EF-1α/GFP = assay: HIV-based lentiviral vector expressing GFP from EF-1α promoter in Jurkat T cells (control); format: cell-based; conditions: 1 μM, 36 hours (FIG. 7D right)
Procedure: (§1) The HIV molecular clone (HIV-R7/E^−/GFP) containing the GFP open reading frame in place of the nef gene and a frameshift mutation in the env gene as well as the method to generate pseudotyped viral particles with VSV-G was previously described. Jordan et al. (2003) Embo J 22: 1868-1877. The number of infective particles per ml was established by infecting 3×10^5 Jurkat cells with different amounts of viral suspension. The titer of the viral stock was measured by flow cytometry analysis of GFP expression 48 hours after infection. The pHR′-EF-1α/GFP construct is a minimal nonreplicative HIV-1 genome containing a heterologous promoter (EF-1α) driving GFP expression. Naldini et al. (1996) Science 272: 263-267. […]. Zufferey et al. (1997) Nat Biotechnol 15: 871-875. All vectors for the production of HIV-based lentiviral vectors were provided by D. Trono, University of Geneva, Switzerland. Jurkat T cells were incubated overnight with HIV-R7/E^−/GFP or pHR′-EF-1α/GFP viral particles at a theoretical multiplicity of infection (m.o.i.) of 0.5 in 24-well plates. […] Viral infection was monitored 36 hours later by flow cytometry analysis using a Calibur FACScan (Becton Dickinson).

p53 = p53 acetylation in cells; format: cell-based; conditions: 1 μM
[1] = test system: Tat-dependent HIV transcription; assay: Tat transactivation of HIV LTR luciferase reporter in transfected HeLa cells treated with HR73; format: cell-based; conditions: at ~1 μM, 8 hours, dose-dependent (FIG. 7C left)
Procedure: (§2) In co-transfection experiments, human CMV-SIRT1 or CMV-SIRT1H363Y (600 ng) was co-transfected into HeLa cells plated in six-well plates with the HIV LTR luciferase reporter (200 ng) or the LTRΔNF-kB-luciferase reporter (200 ng) and increasing amounts of RSV-Tat (0 ng, 2 ng, 20 ng, and 200 ng) using the lipofectamine reagents (Invitrogen). In the control experiment, RSV-Tat was replaced by RSV luciferase (200 ng), and the HIV LTR luciferase construct was replaced by the HIV LTR CAT reporter. […] The RSV-luciferase construct was used as described above. […] Cells were harvested 8 hr later and processed for luciferase assays.

RSV LTR = assay: RSV luciferase control in transfected HeLa cells; format: cell-based; conditions: 1 μM (FIG. 7C right)
Procedure: as §2

[2] = test system: HIV-R7/E-/GFP (HIVNL4-3 with GFP in place of nef); assay: Single-cycle HIV infection of Jurkat T cells, GFP expression by flow cytometry; format: cell-based; conditions: 1 μM, 36 hours (FIG. 7D left)
Procedure: as §1

Row | Compound | basal HIV promoter activity (HIV LTR luciferase) | transcriptional activity of AcTat (transactivation of the HIV promoter) (HIV LTR luciferase) | effect on SIRT1-mediated deacetylation of Tat (SIRT1) | further results
1 | NC(=O)c1cccnc1 [nicotinamide] | stimulating | blocked | completely inhibited | –
2 | CC(/C=C/C(=O)NO)=C\[C@@H](C)C(=O)c1ccc(N(C)C)cc1 [TSA] | enhanced | enhanced | had no effect | –
3 | O=C1Oc2ccc3cc(Br)ccc3c2CC1c1ccccc1 (stereo not drawn) [HR73] | – | – | – | GFP expression from the EF-1α promoter (pHR'-EF-1α/GFP): not affected; acetylation of p53 (p53): induced hyperacetylation; suppression of Tat-dependent HIV transcription [1]: 3 fold; activity of the RSV LTR (RSV LTR): did not suppress; reduction of HIV gene expression as measured by GFP expression [2]: 5 fold
4 | OC[C@H]1O[C@@H](n2cnc3cc(Cl)c(Cl)cc32)[C@H](O)[C@@H]1O [DRB, 5,6-dichlorobenzimidazole riboside] | – | – | – | transactivation by Tat and AcTat (HIV LTR luciferase; Tat or AcTat 30 ng/μl, DRB 10 or 50 μM, four hours (FIG. 6B)): inhibited in a dose-dependent manner
